Assay results: patent publication US10993935B2, “Compositions and methods for treatment of lung infections” (priority 2018, dated 2021)

Key:
P. aeruginosa = test: Uronic acid carbazole assay of alginate production; assay type: cell-based, Pseudomonas aeruginosa
Description: Data shown represent means of 5 replicates per group ±standard error (SE). Two-way ANOVA analysis was used with statistical significance set as a P value of <0.01 (****, P<0.0001; **, P<0.001; *, P<0.01).
Uronic Acid Carbazole Assay. Alginate production was measured via carbazole assay. Laboratory and clinical isolate strains were grown in PIB from a single colony isolation. The strains were then plated on 150 mm agar plates containing no antibiotic; RFX at concentrations of 10 μM (MIC50), 6 μM (MIC30), 2 μM (MIC10), and 0.2 μM (MIC1); or TOB at concentrations of 2 μM (MIC50), 1.2 μM (MIC30), 0.4 μM (MIC10), and 0.04 μM (MIC1) and incubated at 37° C. for 48 h. Sterile PBS (30 mL) was added to the plates and the cells plus their mucoid film were collected into 50 mL conical tubes. A 1 mL sample was taken to measure growth via OD at 600 nm. A 700 μL sample was then added to tubes containing 6 mL of a sulfuric acid-borate solution. A 200 μL aliquot of 0.1% carbazole was then added to the tubes and incubated for 30 m at 55° C. The alginate was then measured via OD at 530 nm and plotted against a standard curve made with D-mannuronic acid (Sigma-Aldrich). The reported values represent an average from three independent alginate collections with standard deviation.
To investigate the extent of this inhibition, PAO1, PAO581, and two mucoid P. aeruginosa CF isolates (CF001 and CF010) were grew on PIA plates containing sub-MIC concentrations of either TOB or RFX and measured alginate production with the carbazole assay. […] The MIC normalization was used to compare the effect of the two drugs on inhibition of alginate production, as this allowed the measurement of alginate made by the same number of bacterial cells.

P. aeruginosa strains = test: MIC and synergy testing (checkerboard/isobologram) of RFX and TOB; assay type: cell-based, Pseudomonas aeruginosa; details: for MIC RFX: RFX alone; for MIC RFX in Combination: in combination with TOB; for MIC TOB: TOB alone; for MIC TOB in Combination: in combination with RFX
Description: Minimum Inhibitory Concentration Testing. MIC testing was performed as previously described. Briefly, overnight culture of bacteria was diluted in 1:100 of a 0.5 McFarland standard as inoculum. The same number of cells was grown in LB broth containing serial, two-fold dilutions of rifaximin (RFX) or tobramycin (TOB). Growth was measured via optical density (OD) at 600 nm after 24 h incubation at 37° C. Concentrations of antibiotic required for inhibition of 50% and 90% of strains were determined.
Synergy Testing. Synergistic potential of RFX and TOB was performed by isobologram (checkerboard) analysis in 96-well plate format Briefly, PIB containing serial dilutions of each drug were plated in 64 wells of a 96-well plate with one drug vertically plated and the other horizontally plated. Bacterial cells of P. aeruginosa were grown 4 to 6 hours to an early log phase and then added to the wells of the plate. Growth in the wells was measured via OD at 600 nm after 24 h incubation at 37° C. The MIC and Fractional Inhibition Concentration (FIC) were calculated to determine synergism, antagonism or additivity between the tested strains of P. aeruginosa: PAO1, PAO581, PAO581 isogenic mutant, CF001, and CF010. The summative ΣFTC was calculated from the FICs and interpreted according to the standard index values: synergy ≤0.5; indifferent 0.5< to ≤4; antagonism >4. […]

P. aeruginosa PAO1 = test: Murine pneumonia model, single-dose treatment, survival; assay type: in vivo, DBA/2 mice; details: 12 mice per group
Description: Kaplan-Meier curves showing percent survival of DBA/2 mice with P. aeruginosa PAO1 infection after treatment with RFX or TOB at 0 h post-infection (FIG. 5A), 6 h post-infection (FIG. 5B), and 12 h post-infection (FIG. 5C). Data shown represent means of 12 mice per group. The Mantel-Cox test was used with significance set at a P value of <0.01 and showing standard error (SE) bars.
Murine Pneumonia Model Treatment. TOB or RFX were used to treat P. aeruginosa respiratory infection in a DBA/2 mouse model established previously. Lung infection was induced by a single exposure to a total of 84 male DBA/2 mice of 8 week old (Charles River Laboratories) to P. aeruginosa PAO1 aerosols, which was prepared as previously reported. Immediately after infection, the mice were separated into seven groups (n=12 per group): 1) control with no treatment, 2) treatment with 300 mg TOB immediately after infection, 3) treatment with 300 mg RFX immediately after infection, 4) treatment with 300 mg TOB 6 h after infection, 5) treatment with 300 mg RFX 6 h after infection, 6) treatment with 300 mg TOB 12 h after infection, or 7) treatment with 300 mg RFX 12 h after infection. Each experimental group was treated with TOB or RFX with a control group treated with PBS following the nebulization protocol as described above. The mice were monitored for survival at 12 hour intervals for 72 hours and then at 24 hour intervals for 6 weeks.
After establishing the dosing of TOB or RFX to efficiently reach the lungs, the efficacy of both drugs against P. aeruginosa lung infections was compared using an established mouse model. DBA/2 (n=84) male mice were first infected with aerosolized P. aeruginosa PAO1 in a whole-body exposure chamber as previously described. The mice were then separated into four groups. One group was left untreated to determine the rate of mortality (control). The remaining three groups were treated with RFX or TOB using a pressure-based nebulizer and whole-body exposure chamber at a concentration of 300 mg at 0 h, 6 h, or 12 h post infection. All control mice died within 5 days (FIGS. 5A-5C), consistent with what was previously reported. […] In the 12 h treatment group, 83% of mice treated with RFX survived, while only 50% of mice treated with TOB survived (FIG. 5C).

[1] = non-mucoid strain PAO1, sub-MIC concentrations (MIC1-MIC50) on PIA, TOB versus RFX
[2] = 300 mg nebulized at 0 h after infection
[3] = 300 mg nebulized at 6 h post infection
[4] = 300 mg nebulized at 12 h post infection

CO[C@H]1/C=C/O[C@@]2(C)Oc3c(C)c(O)c4c(O)c(c5c(nc6cc(C)ccn65)c4c3C2=O)NC(=O)/C(C)=C\C=C\[C@H](C)[C@H](O)[C@@H](C)[C@@H](O)[C@@H](C)[C@H](OC(C)=O)[C@@H]1C [RFX, rifaximin]
alginate production (P. aeruginosa; mucoid CF isolates CF001 and CF010, compared to TOB): significant decrease in alginate production | alginate production (P. aeruginosa; mucoid strain PAO581, all concentrations tested, compared to TOB): significantly decreased alginate production | alginate production (P. aeruginosa; [1]): no significant difference in alginate production | FIC RFX (P. aeruginosa strains; strain CF001, M): 0.25 | MIC RFX (P. aeruginosa strains; strain CF001, M): 16 | MIC RFX in Combination (P. aeruginosa strains; strain CF001, M): 4 | MIC RFX (P. aeruginosa strains; strain CF003, NM): 4 | FIC RFX (P. aeruginosa strains; strain CF010, M): 0.25 | MIC RFX (P. aeruginosa strains; strain CF010, M): 8 | MIC RFX in Combination (P. aeruginosa strains; strain CF010, M): 2 | FIC RFX (P. aeruginosa strains; strain PAO1, NM): 0.25 | MIC RFX (P. aeruginosa strains; strain PAO1, NM (non-mucoid)): 16 | MIC RFX in Combination (P. aeruginosa strains; strain PAO1, NM): 4 | FIC RFX (P. aeruginosa strains; strain PAO581, M): 0.25 | MIC RFX (P. aeruginosa strains; strain PAO581, M (mucoid)): 16 | MIC RFX in Combination (P. aeruginosa strains; strain PAO581, M): 4 | FIC RFX (P. aeruginosa strains; strain PAO581 NM revertant): 0.25 | MIC RFX (P. aeruginosa strains; strain PAO581 NM revertant): 16 | MIC RFX in Combination (P. aeruginosa strains; strain PAO581 NM revertant): 4 | survival (P. aeruginosa PAO1; [2]): 100% | survival (P. aeruginosa PAO1; [3]): 92% | survival (P. aeruginosa PAO1; [4]): 83%

NC[C@H]1O[C@H](O[C@H]2[C@H](O)[C@@H](O[C@H]3O[C@H](CO)[C@@H](O)[C@H](N)[C@H]3O)[C@H](N)C[C@@H]2N)[C@H](N)C[C@@H]1O [TOB, tobramycin]
alginate production (P. aeruginosa; [1]): no significant difference in alginate production | FIC TOB (P. aeruginosa strains; strain CF001, M): 0.25 | MIC TOB (P. aeruginosa strains; strain CF001, M): 2 | MIC TOB in Combination (P. aeruginosa strains; strain CF001, M): 0.5 | MIC TOB (P. aeruginosa strains; strain CF003, NM): 2 | MIC TOB in Combination (P. aeruginosa strains; strain CF003, NM): 0.25 | FIC TOB (P. aeruginosa strains; strain CF010, M): 0.25 | MIC TOB (P. aeruginosa strains; strain CF010, M): 2 | MIC TOB in Combination (P. aeruginosa strains; strain CF010, M): 0.5 | FIC TOB (P. aeruginosa strains; strain PAO1, NM): 0.125 | MIC TOB (P. aeruginosa strains; strain PAO1, NM): 2 | MIC TOB in Combination (P. aeruginosa strains; strain PAO1, NM): 0.25 | FIC TOB (P. aeruginosa strains; strain PAO581, M): 0.25 | MIC TOB (P. aeruginosa strains; strain PAO581, M): 2 | MIC TOB in Combination (P. aeruginosa strains; strain PAO581, M): 0.5 | FIC TOB (P. aeruginosa strains; strain PAO581 NM revertant): 0.25 | MIC TOB (P. aeruginosa strains; strain PAO581 NM revertant): 2 | MIC TOB in Combination (P. aeruginosa strains; strain PAO581 NM revertant): 0.5 | survival (P. aeruginosa PAO1; [2]): 92% | survival (P. aeruginosa PAO1; [3]): 58% | survival (P. aeruginosa PAO1; [4]): 50%
